# From patent US10137185B2, “PAP peptide analogues” (THE NOTTINGHAM TRENT UNIVERSITY, priority 2014, dated 2018)
# Columns and labels:
# [1] = tested on: HLA-A2; details: WO 2005/090560; cited from earlier work
# [2] = tested on: splenocytes; test: Peptide immunisation of HHDII/DRI mice, ex vivo IFNγ ELISPOT of splenocytes; type: in vivo
# Description: FIG. 11. Comparison of IFNγ responses generated by splenocytes isolated from HHDII/DRI mice that have been immunised with PAP-114-128 peptide and PAP-114-128 analogue peptide, as determined using an ex vivo ELISPOT. HHDII/DRI mice were immunised with 100 μg of PAP-114-128 on day 1 and 75 μg of PAP-115-123 on day 14, or 100 μg of PAP-114-128 analogue peptide on day 1 and 75 μg of PAP-115-123 on day 14. Splenocytes were isolated for the ex vivo ELISPOT assay a week after the final immunisation. For the assay, 1×10^6 splenocytes were co-cultured with 1 μg of class I PAP-115-123 peptide or PAP-115-123 analogue peptide or 10 μg of class II PAP-114-128 peptide or PAP-114-128 analogue peptide. Splenocytes with no added peptide were used as control. Comparisons of means (±SEM) between groups (splenocytes pulsed with class I/class II peptide or class I/class II analogue peptide) are made using an unpaired t test. The experiment was performed with three mice per group.
# The immunogenic efficiencies of the PAP-115-123 epitope peptide and the PAP-115-123 analogue peptides were further compared using transgenic HHDII/DRI mice. For this, HHDII/DRI mice in the PAP-114-128 peptide immunisation group were immunised with 100 μg of PAP-114-128 on day 1 and 75 μg of PAP-115-123 on day 14. HHDII/DRI mice in the PAP-114-128 analogue peptide immunisation group was immunised with 100 μg of PAP-114-128 analogue peptide on day 1 and 75 μg of PAP-115-123 on day 14. A week after the final immunisation spleens were isolated for the ex vivo ELISPOT assay. For the assay, 1×10^6 splenocytes were co-cultured with 1 μg of class I PAP-115-123 peptide or PAP-115-123 analogue peptide or 10 μg of class II PAP-114-128 peptide or PAP-114-128 analogue peptide. Splenocytes with no added peptide were used as control. […] The experiment was performed with three mice per group.
# [3] = tested on: splenocytes; test: Peptide immunisation of C57Bl/6 mice, ex vivo IFNγ ELISPOT of splenocytes; type: in vivo; details: for number of spots generated by splenocytes from immunised animals: 100 μg 15-mer day 1, PAP-115-123 day 14, 1×10^6 splenocytes with 1 μg 9-mer peptide, 3 mice
# Description: FIG. 9. Comparison of IFNγ responses induced by PAP-115-123 peptide and PAP-115-123 analogue peptide immunisation (A) and to varying PAP-115-123 peptide/analogue peptide concentrations (B), as determined using an ex vivo ELISPOT. C57Bl/6 mice in the PAP-115-123 peptide immunisation group were immunised with 100 μg of PAP-114-128 on day 1 and 75 μg of PAP-115-123 on day 14. C57Bl/6 mice in the PAP-115-123 analogue peptide immunisation group were immunised with 100 μg of PAP-114-128 analogue peptide on day 1 and 75 μg of PAP-115-123 on day 14. A week after the final immunisation, spleens were isolated for the ex vivo ELISPOT assay. For the assay, 1×10^6 splenocytes were co-cultured with 1 μg of PAP-115-123 peptide or PAP-115-123 analogue peptide. Splenocytes with no added peptide were used as control. Comparisons of means (±SEM) between groups (splenocytes pulsed with PAP-115-123 peptide or PAP-115-123 analogue peptide) are made with an unpaired t test. The experiment was performed with three mice per group.
# The PAP-115-123 peptide which was obtained by altering the second amino acid of the sequence from alanine to […] was predicted to have a higher HLA-2 binding score by the syfpeithi database. The binding score of PAP-115-123 epitope (SAMTNLAAL) (SEQ ID NO. 13) to HLA-A2.1 was 24 and that of the analogue peptide (SLMTNLAAL) (SEQ ID NO. 8) was 30. The immunogenicity of PAP-115-123 epitope and its analogue epitope was assessed by immunising syngeneic C57Bl/6 mice with these peptides. C57Bl/6 mice were immunised with 100 μg of PAP-114-128 on day 1 and […] of PAP-115-123 on day 14 or 100 μg of PAP-114-128 analogue peptide on day 1 and […] of PAP-115-123 on day 14. A week after the final immunisation spleens were isolated for the ex vivo ELISPOT assay. For this, 1×10^6 splenocytes were co-cultured with 1 μg of PAP-115-123 peptide or PAP-115-123 analogue peptide. Splenocytes with no added peptide were used as control. A 2-fold higher IFNγ response by splenocytes from animals immunised with the PAP-114-128 analogue peptide was observed (FIG. 9A). The number of spots in generated by splenocytes from PAP-114-128 immunised animals was 280, whereas the number of spots generated by splenocytes from PAP-114-128 analogue immunised animals was 590. Comparisons of means (±SEM) between groups (splenocytes pulsed with PAP-114-128 peptide or PAP-114-128 analogue peptide) were performed using the unpaired t test, and there were 3 animals in each group. Peptide-specific IFNγ responses generated by splenocytes that had been pulsed with varying concentrations (10, 1, 0.1, 0.01, 0.001 and 0.0001 mg/ml) of PAP-15-123 epitope or analogue epitope were also evaluated.
# [4] = tested on: TRAMP-C1 cells; test: Ex vivo IFNγ ELISPOT of splenocytes of immunised mice co-cultured with TRAMP-C1 or MC38 cells; type: in vivo, C57Bl/6 mice
# Description: FIG. 10. Comparison of IFNγ responses generated by splenocytes from mice that have been immunised with PAP-115-123 analogue peptide, and which have been co-cultured with TRAMP-C1 cells and MC38 cells, as determined using an ex vivo ELISPOT. C57Bl/6 mice were immunised with 100 μg of PAP-114-128 analogue peptide on day 1 and 75 μg of PAP-115-123 on day 14. Splenocytes were isolated for the ex vivo ELISPOT assay a week after the final immunisation. For the assay, 1×10^6 splenocytes were co-cultured with 1×10^5 TRAMP-C1 ‘stimulator’ cells. Control wells received 1×10^5 MC38 cells as stimulator cells. Comparisons of means (±SEM) between groups (splenocytes pulsed with TRAMP-C1 or MC38) are made using an unpaired t test. The experiment was performed with three mice per group.
# To assess whether the T cells generated following PAP-114-128 analogue peptide immunisation could recognise naturally processed PAP-115-123 epitopes, the IFNγ response of splenocytes from the immunised mice that had been co-cultured with TRAMP-C1 cells (that naturally express PAP) was assessed using the ELISPOT. For this, 1×10^6 splenocytes were co-cultured with 1×10^5 TRAMP-C1 cells as stimulator cells. […] The number of spots generated by co-culture splenocytes with TRAMP-C1 cells was 650, whereas and number of spots obtained when using MC38 cells as stimulators was 100. The experiment was performed with three mice per group.
# [5] = tested on: PBMCs from HLA-A2 positive patients with prostate cancer and individuals with benign disease; test: IFNγ ELISPOT of PBMCs from prostate cancer patients and individuals with benign disease after peptide re-stimulation; type: cell-based, human; details: for peptide-specific IFNγ response in samples from individuals with benign disease: 10 benign individuals
# Description: FIG. 3. IFNγ response of peripheral blood mononuclear cells (PBMCs) isolated from patients with prostate cancer and individuals with benign disease after re-stimulation with PAP-115-123 epitope using an ELISPOT assay. Cryopreserved PBMCs from ten HLA-A2 positive prostate cancer patients and ten benign candidates were compared. The PBMCs were cultured in vitro with 5 μg of PAP-114-128 epitope for 7 days. The cells were then washed and rested overnight and 4×10^4 cells were added to each well of an ELISPOT plate. PAP-115-123 epitope peptide (1 μg) was added per well and cells cultured for 48 hours. The plates were then washed according to the manufacturer's protocol. PBMCs with no added peptide were used as control. Comparisons of means (±SEM) between groups (cells pulsed with PAP-115-123 or no peptide) are made using an unpaired t test.
# FIG. 12. IFNγ responses generated by PBMCs isolated from 10 patients with prostate cancer and 10 individuals with benign disease after re-stimulation with the PAP-115-123 analogue epitope peptide, as determined using an ELISPOT assay. PBMCs were cultured in vitro with 5 μg of PAP-114-128 analogue epitope for 7 days. The cells were then washed and rested overnight, at which time and 4×10^4 cells were added to each well of an ELISPOT plate. PAP-115-123 analogue epitope peptide (1 μg) was added to each well and the cells were cultured for 48 hours. The plates were then washed according to the manufacturer's protocol. PBMCs cultured with no added peptide were used as the control. Comparisons of means (±SEM) between groups (PBMCs pulsed with PAP-115-123 analogue or no peptide) are made using an unpaired t test.
# To determine the presence of circulating T cells specific for PAP-115-123 in humans, PBMCs from HLA-A2 positive patients with prostate cancer and individuals with benign disease were used. Cryopreserved PBMCs were thawed, washed and restimulated for 7 days with […] epitope peptide. The cells were then washed and rested overnight, at which time 4×10^4 cells were added to each well of an ELISPOT plate. PAP-115-123 epitope peptide (1 μg) was added to each well and the cells cultured for 48 hours. The plates were developed according to the manufacturer's instructions. PBMCs cultured with no peptide were used as controls. […] The number of IFNγ spots generated by PBMCs from one of the patients was as high as 220 (vs 60 spots for the control). The number of spots generated by PBMCs for the other 6 patients with prostate cancer ranged between 50 and 100 (vs 10-20 in controls). Although some of the PBMCs from individuals with benign disease generated 50-100 spots, the number of spots in the control wells was also high.
# To determine the presence of circulating T cells specific for PAP-115-123 analogue peptide in humans, PBMCs from HLA-A2 positive patients with prostate cancer and individuals with benign disease were used. Cryopreserved PBMCs were thawed, washed and restimulated for 7 days with […] analogue epitope. The cells were then washed and rested overnight, at which time 4×10^4 cells were added to each well of an ELISPOT plate. 1 μg of PAP-115-123 analogue epitope was added to each well and cells were cultured for 48 hours. The plates were developed as per the manufacturer's instructions. PBMCs cultured with no peptide were used as control. […] The number of IFNγ spots in one of the patients was as high as 180 spots compared to control (54 spots). Similar response was also obtained when PBMCs were co-cultured with PAP-115-123 epitope (FIG. 3). The number of spots generated by PBMCs from the 6 patients with prostate cancer patients ranged between 50 and 100 (vs 10-20 in control wells). Although some of the samples from individuals with benign disease generated 50-100 spots, the number of spots in the control wells was also high.
substance,measurement,setting,value
ILLWQPIPV (PAP with Ala to Leu change at position 115) [PAP 135],binding to HLA-A2,[1],strong binding
"PAP-114-128: immunogenic class II PAP epitope that incorporates class I PAP-115-123 (MSAMTNLAALFPPEG; UniProt P15309 114-128, looked up, fragment)",IFNγ response of splenocytes co-cultured with class II epitope,[2]; 10 μg class II peptide,No significant IFNγ response
same,number of spots generated by splenocytes from immunised animals,[3],280 spots
MSLMTNLAALFPPEG (PAP with A-L mutation at position 3 of peptide) [PAP-114-128 analogue peptide],"immune response on the basis of the IFNγ response, compared to immunisation with PAP-114-128",[2]; discussion,significantly more potent
same,number of spots generated by splenocytes from immunised animals,[3],590 spots
same,fold higher IFNγ response vs PAP-114-128 immunisation,"[3]; C57Bl/6, FIG. 9A",2 fold
same,"immune response on the basis of the IFNγ response, compared to immunisation with PAP-114-128","[3]; C57Bl/6 mice, discussion",significantly more potent
same,IFNγ response of splenocytes pulsed with varying peptide concentrations vs native peptide group,"[3]; peptide concentrations of 1, 0.1, 0.01 and 0.001 mg/ml, p<0.05, FIG. 9B",significantly higher
same,"number of spots, MC38 cells as stimulators",[4]; 1×10^5 MC38 cells (do not express PAP),100 spots
same,"number of spots, splenocytes co-cultured with TRAMP-C1 cells","[4]; 1×10^6 splenocytes, 1×10^5 TRAMP-C1 cells (naturally express PAP)",650 spots
same,lysis of TRAMP-C1 cells by T cells generated in C57Bl/6 mice,[4]; discussion,able to lyse TRAMP-C1 cells
same,IFNγ response with TRAMP-C1 vs MC38 cells,"[4]; unpaired t-test, p<0.05",Significantly higher
"SLMTNLAAL (PAP with A-L mutation at position 2 of peptide) [PAP-115-123 analogue peptide, 9-mer PAP analogue with alanine changed to leucine]","number of spots, other 6 patients with prostate cancer","[5]; 1 μg peptide, 4×10^4 cells per well, 10-20 in controls",50-100 spots
same,"number of spots, some PBMCs from individuals with benign disease","[5]; 1 μg peptide, spots in control wells also high",50-100 spots
same,peptide-specific IFNγ response in samples from individuals with benign disease,"[5]; 1 μg peptide, listed as PAP115-123 analogue peptide",not responsive
same,peptide-specific IFNγ response in samples from individuals with benign disease,"[5]; 1 μg peptide, listed as PAP-115-123 analogue",no PAP-115-123 analogue specific IFNγ response
same,responsiveness of PBMCs from patients with prostate cancer,[5]; discussion,greater
same,PBMC samples from patients with prostate cancer with peptide-specific IFNγ response,"[5]; of 10 samples, 7 days re-stimulation with the 15-mer, then 1 μg peptide, 48 hours, vs no peptide",7
same,"number of IFNγ spots, highest patient","[5]; one prostate cancer patient, 1 μg peptide, 4×10^4 cells per well, 48 hours",180 spots
same,IFNγ response of splenocytes co-cultured with class I PAP115-123 and PAP-115-123 analogue peptide epitopes,"[2]; 1 μg class I peptide, vs native peptide group, p<0.05",significantly higher
